# According to ChEMBL document CHEMBL1156829 (Proc Natl Acad Sci U S A, 2008):
# Assays:
# [1] = test system: Plasmodium falciparum; experiment: NOVARTIS: Inhibition of Plasmodium falciparum W2 (drug-resistant) proliferation in erythrocyte-based infection assay; assay type: functional, organism-based; conditions: Plasmodium falciparum, W2; read-out: EC50
# [2] = NOVARTIS: Cytotoxicity against human hepatocellular carcinoma cell line (Huh7); assay type: toxicity, cell-based, Huh-7; conditions: Huh7 cells (hepatocellular carcinoma cell line)
# [3] = test system: Plasmodium falciparum; experiment: NOVARTIS: Inhibition of Plasmodium falciparum 3D7 (drug-susceptible) proliferation in erythrocyte-based infection assay; assay type: functional, organism-based; conditions: Plasmodium falciparum, 3D7
Compound,EC50 [1],CC50 [2],EC50 [3]
COc1cc2nc(NCC3CCCO3)n3nc(-c4ccccc4)nc3c2cc1OC (stereo not drawn),662 nM,> 100000 nM,293 nM
CN(C)[C@@H]1CCN(Cc2cccc(Cl)c2)C[C@@H]1CCC(=O)NCCCN1CCOCC1,< 15.4 nM,> 2940 nM,593 nM
COc1cc2c(cc1OC)-c1cc3ccc(OC)c(OC)c3c[n+]1CC2 [PALMATINE CHLORIDE],766 nM,> 100000 nM,697 nM
CN1C=C(c2ccc3ccccc3n2)C(c2c[nH]c3ccccc23)c2ccccc21 (stereo not drawn),1210 nM,> 100000 nM,1140 nM
CN(C)CCCNc1ncnc2c1[nH]c1ccccc12,934 nM,> 100000 nM,233 nM
O=C1CN(C(=O)CCC2CCCCC2)C(c2ccccc2)c2cc(F)ccc2N1 (stereo not drawn),1300 nM,33200 nM,1070 nM
CN1CCN(c2ccc(Nc3ccnc4cc(Cl)ccc34)cc2Cl)CC1,54.7 nM,> 23700 nM,35.8 nM
Cc1ccn2c(NC(C)(C)CC(C)(C)C)c(-c3ccccc3OC(=O)C3CCCC3)nc2c1,< 8.29 nM,> 10000 nM,1010 nM
COc1ccc(Cn2c(=S)[nH]c3ccsc3c2=O)cc1,1100 nM,> 10000 nM,> 1430 nM
NCCNc1cc(-c2ccccc2)nc2ccccc12,375 nM,23000 nM,318 nM
CCCN1CCC(NC2CCCc3c2[nH]c2ccc([N+](=O)[O-])cc32)CC1 (stereo not drawn),3630 nM,28000 nM,1160 nM
Cc1c(C(=O)Nc2ccccc2)sc2ncn(Cc3ccccc3Cl)c(=O)c12,2420 nM,> 100000 nM,5400 nM
C(#Cc1ccccc1)C[N+]1(CCOc2ccccc2)CCCCC1,981 nM,> 100000 nM,1440 nM
CCOC(=O)c1cnc2c(C)cc(C)cc2c1Nc1ccc(C(C)=O)cc1,675 nM,> 100000 nM,749 nM
O=[N+]([O-])c1cccc(Cl)c1N1CCN(S(=O)(=O)Cc2ccccc2)CC1,1300 nM,> 10000 nM,> 1160 nM
CC(C)c1ccc(NC(=O)C=Cc2ccccc2Cl)cc1,45.6 nM,17500 nM,102 nM
CCOC(=O)C1=C(C)NC2=C(C(=O)C(C(=O)OCC)C(c3cccc(OC)c3)C2)C1c1ccc(OC)c(OC)c1 (stereo not drawn),167 nM,> 100000 nM,376 nM
Cc1ccc2c(c1)NC(c1ccc(F)cc1)C1=C(CC(c3ccccc3)CC1=O)N2 (stereo not drawn),635 nM,> 100000 nM,833 nM
CC(=O)NC1=NN(C(C)=O)C(c2ccc(Br)cc2)S1 (stereo not drawn),976 nM,> 100000 nM,> 7540 nM
CC(c1nc2ccc(Cl)cc2c(=O)n1C)N1CCN(S(=O)(=O)c2cccc3ccccc23)CC1 (stereo not drawn),140 nM,> 100000 nM,147 nM
CCn1c2cc(C)sc2c2cnn(CC(=O)Nc3c(C)nn(C)c3C)c(=O)c21,> 1250 nM,> 10000 nM,> 749 nM
COC(=O)C1=C(C)N/C(=C\c2cc(C)n(-c3cc(Cl)ccc3Cl)c2C)C1=O,1010 nM,> 10000 nM,1520 nM
O=[N+]([O-])c1ccc(-c2ccc(C=NNc3nc(Nc4ccccc4)nc(Nc4ccccc4)n3)o2)cc1,933 nM,> 100000 nM,875 nM
CC(Cl)=CCc1c(C)nc2c(ccc3ccccc32)c1O,299 nM,> 100000 nM,230 nM
O=C(CN1CCN(C(=O)c2ccco2)CC1)Nc1cc(C(F)(F)F)ccc1Cl,> 10000 nM,> 100000 nM,4040 nM
CCOc1ccc2nc(C)cc(Nc3cccc(O)c3)c2c1,289 nM,19800 nM,201 nM

Compound,EC50 [1],CC50 [2],EC50 [3]
COc1cc(C=NNC(=O)c2ccco2)ccc1OCc1ccc([N+](=O)[O-])cc1,> 941 nM,> 10000 nM,> 1250 nM
COc1cccc(C(=O)NC(c2ccccc2OC)c2cc(Cl)c3cccnc3c2O)c1 (stereo not drawn),1150 nM,> 100000 nM,1200 nM
O=C(Nc1ccc(Br)cn1)c1ccc(Oc2cc(Oc3cccc(Cl)c3)cc([N+](=O)[O-])c2)cc1,> 1180 nM,> 10000 nM,> 1250 nM
N#Cc1c(NC(=O)CCl)c(C(=O)c2ccccc2)n2c1CCC2,> 12500 nM,> 74200 nM,298 nM
CCCN1CCC(N2CCCC(c3[nH]ncc3-c3cccc(C(F)(F)F)c3)C2)CC1 (stereo not drawn),448 nM,> 10000 nM,757 nM
CC1=C(CC(=O)c2ccc(Cl)cc2)C(=O)c2ccccc2C1=O,1020 nM,46600 nM,2740 nM
CC(C)(C)c1nn(-c2ccc(Cl)cc2)c2[nH]c(=O)c(CNCc3ccccc3)cc12,539 nM,> 100000 nM,731 nM
CCOC(=O)c1c(C)nc2c(c1C)c(=O)oc1ccccc12,70.5 nM,> 100000 nM,> 12500 nM
O=C1CC(c2ccccc2)CC2=C1C(c1cccc(Cl)c1Cl)Nc1ccccc1N2 (stereo not drawn),464 nM,> 78800 nM,288 nM
COc1ccc(-c2c[n+](CC(=O)c3ccc([N+](=O)[O-])cc3)c3n2CCC3)cc1,426 nM,> 100000 nM,518 nM
Cc1nn(C)cc1-c1nc2cnccn2c1NCC1CCCO1 (stereo not drawn),> 876 nM,> 10000 nM,> 1250 nM
O=C(NNc1nc(-c2cc3ccccc3oc2=O)cs1)c1ccccc1,> 981 nM,> 10000 nM,> 1250 nM
Cc1nc(NC(=N)N)nc2ccccc12,858 nM,66400 nM,887 nM
Cc1nc(-c2ccncc2)nc(NCCNc2ccc(C(F)(F)F)cn2)c1Cl,> 1250 nM,> 10000 nM,714 nM
CCc1nc2nc(C)cc(Nc3ccc(C)c(F)c3)n2n1,140 nM,> 100000 nM,248 nM
CC(=O)C1C(=O)c2c(cccc2[N+](=O)[O-])C1=Nc1ccccc1C (stereo not drawn),777 nM,51700 nM,643 nM
CCn1c(SCC(=O)NCCc2ccccc2)nc2sc3c(c2c1=O)CCN(C)C3,3100 nM,> 100000 nM,> 4820 nM
CCCC(=O)N1CCN(c2nc(Cc3ccccc3)c3c(c2C#N)CC(C)(C)OC3)CC1,363 nM,> 90900 nM,324 nM
CN(C)CCNC(=O)c1cc2c(-c3ccc(Cl)cc3)nn(C)c2s1,422 nM,64600 nM,339 nM
COc1ccccc1N(CC(=O)N1CCCCC1)S(=O)(=O)c1ccccc1,> 1070 nM,> 10000 nM,> 1250 nM
CCCCCCN(C(=O)COCc1ccccc1)C(C)c1nc2ccccc2c(=O)n1-c1cccc(Cl)c1C (stereo not drawn),596 nM,> 10000 nM,1160 nM
CCN(CC)CCNc1ccnc2ccc([N+](=O)[O-])cc12,115 nM,> 100000 nM,89.8 nM
O=C(NNc1c2ccccc2nc2ccccc12)Nc1ccccc1,756 nM,> 10000 nM,873 nM
CON(C)C=C(C(=O)Nc1ccc(C(F)(F)F)cc1)C(=O)Nc1ccc(C(F)(F)F)cc1,515 nM,> 10000 nM,659 nM
CCOC(=O)c1ccc2nc3c(nc2c1)C(=O)c1ccccc1C3=O,23.6 nM,512 nM,26.7 nM
